One data set deals with T1, hERG (Homo sapiens, UniProt Q12809).
T1 construct: expressed in transfected cells
The experiment in a line: Whole-cell patch clamp on stably transfected HEK-293 cells, hERG tail current. Format: cell-based. The conditions noted are these: peak tail current at −40 mV after +20 mV. Here is the method:
Whole-cell patch clamp experiments were performed on stably transfected HEK-293 cells. The cells were grown on fibronectin-coated glass coverslips in DMEM supplemented with 10% FCS and 300 µg/mL Zeocin. Experiments were performed at room temperature under continuous perfusion. The extracellular solution contained (mM) 160 NaCl, 2.5 KCl, 2 CaCl2, 1 MgCl2, 10 Hepes/NaOH, pH 7.4, 8 glucose. For the experiments determining conductance–voltage relationships, tail currents were made visible by substituting 60 mM NaCl by KCl ([…], 100 NaCl). Pipettes were pulled from #1 glass capillaries (WPI) to resistances of 1–3 MΩ when loaded with the intracellular solution (100 KCl, 45 N-methyl-D-glucamine, 10 1,2-bis(o-aminophenoxy)ethane-N,N,N′,N′-tetraacetic acid (BAPTA), 10 Hepes pH 7.35). Data acquisition was performed using a EPC10 Plus amplifier (HEKA Elektronik) and Patch Master software. Drug application was performed using an 8-channel fast solution exchanger (ALA). All compounds were dissolved in DMSO to a final concentration of 10 mM. 0.5% DMSO in extracellular solution served as control. KV10.1 currents were elicited by 500 ms depolarisations to +40 mV under continuous perfusion with the compound-containing or control solution. hERG current amplitudes were measured as the peak tail current during a 4 s repolarization to −40 mV after a depolarising pulse to +20 mV lasting for 2 s.
A general note: Patch clamp records ionic current or voltage across a cell membrane.

The next data set has as its system MCF-7 cells. The experiment in a line: Cell growth in 2D culture (Incucyte confluence, 72 h), MCF-7. The conditions noted are these: for IC50: high KV10.1 and low hERG expression. The data set is classed as cell-based. As for the experimental part: Cell lines MCF-7 (DSMZ ACC 115), PANC-1 (DSMZ ACC 783), and hTERT-RPE1 (ATCC CRL 4000) were grown in the media recommended by the cell provider in a humidified atmosphere at 5% CO2 and 37 °C. For cell growth experiments, 10^4 cells/well were seeded in 96-well flat bottom culture plates (Corning) and allowed to grow for 24 h. The compounds were then added in the corresponding growth medium, and the plate was imaged every hour for 72 h (two images per well and eight wells per condition in two independent experiments for compound 8 and five for ZVS-08 and compound 1) in an Incucyte system (Sartorius/Essen biosciences). Culture confluence was determined in the phase contrast images and is expressed as percent confluence per well. The growth was then normalised to the value in the absence of compounds.
KV10.1 inhibitors with a favourable pharmacological profile are promising candidates for cancer therapy. To investigate the activity of the new compounds on cancer cells proliferation, compounds ZVS-08, 1 and 8 were tested on MCF-7, a breast cancer cell line showing high KV10.1 expression and low hERG expression, and on Panc1, a pancreatic cancer cell line with undetectable KV10.1 expression and high level of hERG expression. hTERT-RPE1 cells served as a non-cancer cell line. hTERT-RPE1 cells show transient physiological expression of Kv10.1 that begins during the G2 phase of the cell cycle and extends through mitosis as present in normal cells. Different concentrations of the compounds were added to the culture medium and the growth of the cell was monitored over 72 h (Figure 14).
For orientation: hERG is a cardiac potassium channel; its block is linked to QT prolongation.

For a further data set, the system named is Colo357 tumour spheroids. The experiment in a line: Apoptosis (caspase 3/7 reporter) in tumour spheroids. Format: cell-based. The conditions noted are these: 50 µM, caspase reporter fluorescence over 72 h, 8.9 µM cycloheximide as sensitizer. As for the experimental part: Spheroids were cultured in round bottom ultra-low attachment 96-well plates (Corning) at a density of 5000 cells/well in 2% Matrigel (Corning) and centrifuged at 1000× g for 10 min. Spheroid formation was monitored continuously in the Incucyte system and treatments were added once spheroids were formed. As apoptosis sensitizer, 8.9 µM cycloheximide was added to controls and treated spheroids. Caspase 3/7 green reagent (Sartorius; 1:1000) was used as recommended by the manufacturer. Caspase 3/7 reagent substrate crosses the cell membrane and its cleavage by activated caspase-3/7 results in the release of a DNA dye and fluorescent staining of nuclear DNA.
To test the ability of the compounds to inhibit tumour progression in a more predictive system, we performed experiments on tumour spheroids of the pancreatic cancer cell line Colo357, which grows efficiently in this culture modality. The cells were seeded in the presence of Matrigel (see methods), allowed to form spheroids, and the compounds (50 µM) were added to the growth medium. The control contained the same amount of the vehicle (0.5% DMSO). Apoptosis was monitored by addition of a fluorescent […] activity reporter at the same time as the compounds. Cleavage of the reporter by caspase results in green florescence, and the intensity of the fluorescence was recorded over 72 h.

In data set [1] the test system is Salmonella typhimurium strain TA100. The experiment in a line: Salmonella/microsomal reverse mutation (Ames) assay, TA100. Set-up: key to bacterial background lawn: slightly reduced bacterial background; moderately reduced bacterial background; extremely reduced bacterial background; bacterial background is absent. The following applies: for mutagenic response: TA100, 0.0158–0.158 mg/plate, −S9 and +S9; for cytotoxic concentration to bacterial strain: TA100, −/+ S9 metabolic activation; for induction factor (IF): IF ≥ 2 positive. Here is the method:
Mutagenicity of compounds ZVS-08 and 8 was tested with the Salmonella/microsomal reverse mutation (Ames) assay on Salmonella typhimurium strains TA98 and TA100 without and with external metabolic activation according to the OECD guidelines (OECD TG 471) with minor modifications. Briefly, 100 µL of ZVS-08 and 8 (0.158, 0.5, 1.58, 5, 15.8, and 50 mg/mL corresponding to the final concentration of 0.0158, 0.05, 0.158, 0.5, 1.58, and 5 mg/plate, respectively), […] bacterial culture of S. typhimurium (overnight culture at 37 °C), and […] of phosphate buffer (for assays without metabolic activation) or 10% S9 mix (for assays with metabolic activation) were added to 2 mL of molten top agar (supplemented with histidine/biotin, final concentration 0.05 mM), gently mixed and poured onto minimal agar plates. The number of His+ revertants was counted after 48 h (TA100) and 72 h (TA98) of incubation at 37 °C. Three plates were used per treatment point. The mutagenic potential of the compounds was expressed as an induction factor (IF), where IF = (number of revertants in the presence of the compound)/(number of revertants in solvent control). Additionally, each plate was checked for possible toxic effects of tested compounds. […] 4-nitroquinoline- N-oxide (4-NQNO; 0.25 μg/plate) for TA98 and sodium azide (NaN3; 0.25 μg/plate) for TA100 were used as positive controls without S9 metabolic activation, while benzo[a]pyrene (B[a]P; 2.5 μg/plate) was used as positive controls for both bacterial strains with S9 metabolic activation.

Data on 2 compounds can be found in paper PMC8002023, “3D Pharmacophore-Based Discovery of Novel KV10.1 Inhibitors with Antiproliferative Activity” (Cancers, 2021).

“Also recorded” adds a separate entry of the source. A value given as a limit tells only on which side of the number the result lay.

T1 sequence (Q12809 whole entry): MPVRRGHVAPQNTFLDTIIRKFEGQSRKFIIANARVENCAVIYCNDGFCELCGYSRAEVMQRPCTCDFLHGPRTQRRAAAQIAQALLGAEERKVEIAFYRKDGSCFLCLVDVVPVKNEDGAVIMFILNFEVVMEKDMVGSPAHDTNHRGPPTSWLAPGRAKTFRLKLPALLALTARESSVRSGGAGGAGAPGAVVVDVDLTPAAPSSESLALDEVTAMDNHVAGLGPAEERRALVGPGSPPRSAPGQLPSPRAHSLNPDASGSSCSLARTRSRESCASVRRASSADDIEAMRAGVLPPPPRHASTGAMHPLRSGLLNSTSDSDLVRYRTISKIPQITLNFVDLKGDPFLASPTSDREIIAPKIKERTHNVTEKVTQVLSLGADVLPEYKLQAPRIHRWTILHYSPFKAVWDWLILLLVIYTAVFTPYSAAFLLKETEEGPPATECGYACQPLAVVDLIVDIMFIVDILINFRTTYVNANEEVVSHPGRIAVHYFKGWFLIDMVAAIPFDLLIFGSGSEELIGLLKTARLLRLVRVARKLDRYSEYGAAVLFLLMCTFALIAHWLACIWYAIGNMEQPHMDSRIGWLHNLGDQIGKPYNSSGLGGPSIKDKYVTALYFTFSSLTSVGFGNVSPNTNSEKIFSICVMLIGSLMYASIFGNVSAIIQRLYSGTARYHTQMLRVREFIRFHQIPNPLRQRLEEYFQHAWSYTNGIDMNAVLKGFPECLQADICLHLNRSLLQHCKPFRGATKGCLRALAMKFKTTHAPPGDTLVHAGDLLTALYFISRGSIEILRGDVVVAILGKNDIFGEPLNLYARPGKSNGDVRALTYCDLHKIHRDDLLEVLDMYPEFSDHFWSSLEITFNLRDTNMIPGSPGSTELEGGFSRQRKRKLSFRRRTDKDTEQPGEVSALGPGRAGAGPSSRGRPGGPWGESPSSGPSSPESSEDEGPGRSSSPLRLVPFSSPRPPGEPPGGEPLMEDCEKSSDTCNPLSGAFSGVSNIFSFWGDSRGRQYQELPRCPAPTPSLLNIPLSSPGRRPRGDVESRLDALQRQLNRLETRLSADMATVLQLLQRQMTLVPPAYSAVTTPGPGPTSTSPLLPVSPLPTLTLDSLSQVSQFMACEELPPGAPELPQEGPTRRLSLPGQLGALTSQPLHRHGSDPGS

One may read the IC50 as the concentration that inhibits the measured activity by half. Take `O=[N+]([O-])c1cc(C(F)(F)F)ccc1Nc1ccc(OCC(O)CN2CCOCC2)cc1` (stereo not shown) [Compound 8]: half-maximal inhibition on hERG (IC50) required 156 nM. Besides, the “effect on growth of MCF-7 cells” value in the data set with MCF-7 cells (concentrations tested) is “ineffective; also recorded: inactive”. The “apoptosis induction in tumour spheroids” value in the data set with Colo357 tumour spheroids is on record as “apoptosis statistically significant over the control starting only after 24 h”. In data set [1], the “mutagenic response” value is reported as “no mutagenic response” and the “cytotoxic concentration to bacterial strain” value is at least 0.5 mg/plate.

With `CN(C)CC(O)COc1ccc(Nc2ccc(C(F)(F)F)cc2[N+](=O)[O-])cc1` (stereo not shown) [ZVS-08], the IC50 is 194 nM against hERG; 6800 nM in the data set with MCF-7 cells (Homo sapiens, MCF7, 72 h); around 5000 nM in the data set with MCF-7 cells. In the data set with Colo357 tumour spheroids, the “apoptosis induction in tumour spheroids” value is “induced apoptosis efficiently starting very early”. In data set [1], the “mutagenic response” value is “no mutagenic response”. Besides, the “Average number of revertant colonies (mean ± SD)” value in data set [1] (TA100, +S9, 0.0158 mg/plate) came out at 102.67 ± 15.01; in data set [1] (TA100, +S9, 0.05 mg/plate), 81.67 ± 14.57; in data set [1] (TA100, +S9, 0.158 mg/plate), 71.00 ± 7.21; in data set [1] (TA100, +S9, 0.5 mg/plate) it was 0; in data set [1] (TA100, +S9, 1.58 mg/plate) it was 0; in data set [1] (TA100, +S9, 5 mg/plate), 0. The “Average number of revertant colonies (mean ± SD)” value is recorded as 114.00 ±2.00 in data set [1] (TA100, -S9, 0.0158 mg/plate); 99.67 ± 16.80 in data set [1] (TA100, -S9, 0.05 mg/plate); 81.00 ± 5.29 in data set [1] (TA100, -S9, 0.158 mg/plate); 0 in data set [1] (TA100, -S9, 0.5 mg/plate); 0 in data set [1] (TA100, -S9, 1.58 mg/plate); 0 in data set [1] (TA100, -S9, 5 mg/plate). Also, the “induction factor (IF)” value came to 1.02 in data set [1] (TA100, +S9, 0.0158 mg/plate); 0.81 in data set [1] (TA100, +S9, 0.05 mg/plate); 0.71 in data set [1] (TA100, +S9, 0.158 mg/plate); 1.29 in data set [1] (TA100, -S9, 0.0158 mg/plate); 1.12 in data set [1] (TA100, -S9, 0.05 mg/plate); 0.91 in data set [1] (TA100, -S9, 0.158 mg/plate). The bacterial background lawn result in data set [1] (TA100, +S9, 0.158 mg/plate) is given as “a”; in data set [1] (TA100, +S9, 0.5 mg/plate), “b”; in data set [1] (TA100, +S9, 1.58 mg/plate), “d”; in data set [1] (TA100, +S9, 5 mg/plate) it was “d”; in data set [1] (TA100, -S9, 0.158 mg/plate), “a”; in data set [1] (TA100, -S9, 0.5 mg/plate), “c”. The bacterial background lawn result in data set [1] (TA100, -S9, 1.58 mg/plate) was “d”; in data set [1] (TA100, -S9, 5 mg/plate), “d”. For the same compound, the “cytotoxic concentration to bacterial strain” value in data set [1] is at least 0.5 mg/plate.
